ChEMBL document CHEMBL5647697, “Akt inhibition synergizes with polycomb repressive complex 2 inhibition in the treatment of multiple myeloma” (2019)

Assays:
Type in all cases: functional
MM1.S [1] = assay: Induction of apoptosis in human MM1.S cells assessed as necrotic cells at 5 micromol/L incubated for 48 hrs by annexin V/PI staining based flow cytometry (reference value: 0.17%); conditions: dose 5 µmol/L, at 5 µM
MM1.S [2] = assay: Induction of apoptosis in human MM1.S cells assessed as late apoptotic cells at 5 micromol/L incubated for 48 hrs by annexin V/PI staining based flow cytometry (reference value: 3.6%); conditions: dose 5 µmol/L, at 5 µM
MM1.S [3] = assay: Induction of apoptosis in human MM1.S cells assessed as early apoptotic cells at 5 micromol/L incubated for 48 hrs by annexin V/PI staining based flow cytometry (reference value: 8.03%); conditions: dose 5 µmol/L, at 5 µM
MM1.S [4] = assay: Induction of apoptosis in human MM1.S cells assessed as viable cells at 5 micromol/L incubated for 48 hrs by annexin V/PI staining based flow cytometry (reference value: 88.2%); conditions: dose 5 µmol/L, read-out: Activity

Work on `CCCc1cc(C)[nH]c(=O)c1CNC(=O)c1cc(-c2ccc(N3CCN(C(C)C)CC3)nc2)cc2c1cnn2C(C)C` yielded an Activity (MM1.S [1]) of 0.41%, an Activity (MM1.S [2]) of 15.9% and an Activity (MM1.S [3]) of 18.8%. It also gave a viability at 5 µM (MM1.S [4]) of 64.9%.
